The source of these data is patent publication US10532068B2, “Dual molecular delivery of oligonucleotides and peptide containing conjugates” (Merck Sharp & Dohme Corp., priority 2013, dated 2020).

In the series the test system is CTNNB1. Briefly: In vivo evaluation in mice: liver mRNA knockdown measurement (TaqMan qPCR). Conditions: mice. On the set-up: species or system CD-1 mice. The protocol:
Female CD-1 mice (Charles River) were injected in accordance with either a sequential dosing paradigm or a co-dosing paradigm. In the sequential dosing paradigm, the targeted siRNA (SCE) is dosed at t=0 and the targeted peptide is separately dosed up to 2 hr before the SCE (−2 hr) or up to 24 hr after the SCE (+24 hr). In the co-dosing paradigm, the SCE and peptides are co-formulated and dosed together in the same formulation as a single injection at t=0. The mice were dosed either by intravenous (i.v.) or subcutaneous (s.c.) injection of SCE and peptide. For the i.v. doses, the compounds were injected into the tail vein of the mice. For the s.c. doses, the compounds were injected in the subcutaneous space on the back of the mouse between the shoulder blades. At the indicated harvest times (measured from t=0 when the siRNA was dosed, regardless of when the peptide was dosed), the animals were sacrificed and 3 mm liver punches were collected, preserved in RNAlater (Ambion), and stored at 4° C. Separate 5 mm liver punches were collected, placed in 96-well plates, frozen on dry ice, and stored at −80° C. until use.
The 3 mm liver punches were removed from RNAlater and homogenized in Trizol (Invitrogen) using a bead mill tissue lyser (Qiagen); disruption was performed for two 5-minute cycles at 30 Hz. RNA extraction was performed using 1-bromo-2-chloropropane (Acros Organics) and total RNA was isolated from the aqueous phase using the MagMax RNA isolation method (Ambion). […] TaqMan qPCR analysis was performed with an ABI 7900 Real-Time PCR System using TaqMan Fast Advanced Master Mix (Applied Biosystems). All TaqMan probes and primers for CTNNB1 and PPIB (housekeeping gene) were purchased from Applied Biosystems as pre-validated gene expression assays. Results are calculated by the comparative Ct method, where the difference between the CTNNB1 Ct value and the PPIB Ct value (ΔCt) is calculated and then further normalized relative to the PBS control by taking a second difference (ΔΔCt), as described previously (1).

The mark [1] stands for this setting: Table 6, sequential, peptide IV 15 min after siRNA IV, TGN-L-siRNA-III 0.5 mg/kg, peptide 5 mg/kg.
The mark [2] stands for this setting: Table 6, sequential, peptide IV 15 min after siRNA IV, TGN-L-siRNA-II 0.25 mg/kg, peptide 1 mg/kg.
The mark [3] stands for this setting: Table 6, sequential, peptide IV 15 min after siRNA IV, TGN-L-siRNA-II 0.25 mg/kg, peptide 3 mg/kg.
[4] abbreviates: Table 6, sequential, peptide IV 15 min after siRNA IV, TGN-L-siRNA-III 0.5 mg/kg, peptide 2 mg/kg.
Where [5] appears, read: Table 6, sequential, peptide IV 15 min after siRNA IV, TGN-L-siRNA-III 0.5 mg/kg, peptide 10 mg/kg.
[6] abbreviates: Table 6, sequential, peptide IV 15 min after siRNA IV, TGN-L-siRNA-III 0.25 mg/kg, peptide 5 mg/kg.
Where [7] appears, read: Table 6, sequential, peptide IV 15 min after siRNA IV, TGN-L-siRNA-III 0.25 mg/kg, peptide 10 mg/kg.

Where no end group is shown, it is not given here. [ ]: non-standard residue; d: D form. S‑S‑TGN = not defined here; TGN = not defined here

On to “TGN-S-S-SEQ ID NO: 1716 (L) (C(TGN)GLFEELAGLLWHGLKNLIDWWNG; reading uncertain; also: Cys disulfide-linked to TGN peptide; listed as Homo sapiens)”, for which the “In vivo mRNA knockdown (%)” value under setting [1] was found to be 39%. For the substance “TGN-S-S-SEQ ID NO: 1738 (D) (G[dL][dF]G[dE][dI][dE][dE][dL][dI][dE][dE]G[dL][dE][dN][dL][dI][dD][dW]G[dN]G[dL][dA][dE][dL][dA][dE][dA][dL][dE][dA][dL][dA][dA]GG[dS][dC]; not fully specified; also: disulfide to TGN peptide via C-terminal Cys; listed as Homo sapiens)”, the “In vivo mRNA knockdown (%)” value under setting [2] is listed as 25% and the “In vivo mRNA knockdown (%)” value under setting [3] is 44%. For “TGN-S-S-SEQ ID NO: 1712 (L) (C(TGN)FLGALWKALSELLKNLIDWWNG; reading uncertain; also: Cys disulfide-linked to TGN peptide; listed as Homo sapiens)”, the “In vivo mRNA knockdown (%)” value under setting [1] worked out at 34%.

Take “TGN-S-S-SEQ ID NO: 1744 (D) ([dC][dE][dE][dN][dW][dI]G[dL][dF]GGG[dN][dI][dW][dE][dE][dE][dE][dI][dL][dD][dL][dL]; also: disulfide to TGN peptide via N-terminal Cys; listed as Homo sapiens)”: the “In vivo mRNA knockdown (%)” value under setting [4] came out at 28% and the “In vivo mRNA knockdown (%)” value under setting [5] amounted to 33%. Take “TGN-S-S-SEQ ID NO: 1717(L): TGN-S-S-peptide, peptide CFLGALFHALSHLLENLIDWWNG (C(TGN)FLGALFHALSHLLENLIDWWNG; reading uncertain; also: Cys disulfide-linked to TGN peptide; listed as Homo sapiens)”: under setting [1], the “In vivo mRNA knockdown (%)” value worked out at 16%. As for “TGN-S-S-SEQ ID NO: 1733 (D): TGN-S-S-peptide, peptide AC-GLFGALAEALAEALAEHLAEALAEALEALAAGGSC”, the “In vivo mRNA knockdown (%)” value reads like this: under setting [2], 60%; under setting [3], 75%; (Table 6, sequential, peptide IV 15 min after siRNA IV, TGN-L-siRNA-II 0.25 mg/kg, peptide 10 mg/kg) 58%; (Table 6, sequential, peptide IV 15 min after siRNA IV, TGN-L-siRNA-II 0.25 mg/kg, peptide 50 mg/kg) 50%; under setting [6], 73%; (Table 7, TGN-L-siRNA-II 0.25 mg/kg, peptide 3 mg/kg, Sequential dosing-IV (peptide 15 min after siRNA)) 69%. Moreover, the “In vivo mRNA knockdown (%)” value is, setting by setting: (Table 7, TGN-L-siRNA-II 0.25 mg/kg, peptide 3 mg/kg, Sequential dosing-SC (peptide 15 min after siRNA)) 47%; (Table 7, TGN-L-siRNA-II 0.25 mg/kg, peptide 10 mg/kg, Sequential dosing-IV (peptide 15 min after siRNA)) 58%; (Table 7, TGN-L-siRNA-II 0.25 mg/kg, peptide 10 mg/kg, Sequential dosing-SC (peptide 15 min after siRNA)) 67%. For “TGN-S-S-SEQ ID NO: 1732 (D): TGN-S-S-peptide, peptide AC-GIFEAIAGLLKINFKC”, the “In vivo mRNA knockdown (%)” value under setting [6] is given as 35%. “TGN-S-S-SEQ ID NO: 1731(D): TGN-S-S-peptide, peptide CGIGAVLHVLTTGLPALISWIHHHHQQ”: the “In vivo mRNA knockdown (%)” value under setting [7] is 30%. For the substance “TGN-S-S-SEQ ID NO: 1489 (D) ([dC](S‑S‑TGN)[dL][dE][dL][dW][dL][dE][dH][dL][dF][dL][dE][dL][dE]; reading uncertain; also: Cys disulfide-linked to TGN peptide; listed as Homo sapiens)”, the “In vivo mRNA knockdown (%)” value under setting [4] is 37%; the “In vivo mRNA knockdown (%)” value under setting [5] is reported as 26%; the “In vivo mRNA knockdown (%)” value (Table 6, sequential, peptide IV 15 min after siRNA IV, TGN-L-siRNA-III 0.5 mg/kg, peptide 25 mg/kg) was 34%.

In the case of “TGN-S-S-SEQ ID NO: 1403 (L) (C(TGN)GLLEEIEELLEEGLENLIDWWNS; reading uncertain; listed as Homo sapiens)”, the “In vivo mRNA knockdown (%)” value reads like this: (Table 6, sequential, peptide IV 15 min after siRNA IV, TGN-L-siRNA-III 0.25 mg/kg, peptide 2 mg/kg) 22%; under setting [7], 24%. For “TGN-S-S-SEQ ID NO: 1516 (L) (C(TGN)GLFAEIEELLEEGLENLIDWWNG; reading uncertain; listed as Homo sapiens)”, the “In vivo mRNA knockdown (%)” value under setting [6] was 14%.

Consider “TGN-S-S-SEQ ID NO: 1248 (L) (C(TGN)FLEELWELLEHLL; reading uncertain; listed as Homo sapiens)”, for which, under setting [1], the “In vivo mRNA knockdown (%)” value amounted to 24%.

For “TGN-S-S-SEQ ID NO: 1631 (D) ([dC](S‑S‑TGN)G[dL][dF]G[dH][dI][dH][dH][dL][dI][dH][dH]G[dL][dH][dN][dL][dI][dD][dW][dW][dN]G; reading uncertain; also: Cys disulfide-linked to TGN peptide; listed as Homo sapiens)”, under setting [7], the “In vivo mRNA knockdown (%)” value came out at 17%. In the case of “TGN-S-S-SEQ ID NO: 1653 (D) ([dC](TGN)G[dL][dF]G[dE][dI][dA][dE][dL][dI][dW][dE]G[dL][dE][dN][dL][dI][dD][dW]G[dN]G; reading uncertain; also: Cys disulfide-linked to TGN peptide; listed as Homo sapiens)”, the “In vivo mRNA knockdown (%)” value was 63% under setting [7] and 69% (Table 6, sequential, peptide IV 15 min after siRNA IV, TGN-L-siRNA-III 0.25 mg/kg, peptide 50 mg/kg).

In the case of “siRNA-IV: CTNNB1 ds siRNA, passenger SEQ ID NO 1807 (clickA, 5Chol), guide SEQ ID NO 1806 (sense CUGUUGGAUUGAUUCGAAAUU; guide TUUCGAAUCAAUCCAACAGUU; clickA; 5' cholesterol; (1)..(1) aminohexyl phosphate inverted abasic cap; (1)..(2) 2′-O-methyl; (3)..(3) 2′-deoxy-2′-fluoro; (4)..(5) 2′-O-methyl; (6)..(8) 2′-deoxy-2′-fluoro; (9)..(10) 2′-O-methyl; (11)..(12) 2′-deoxy-2′-fluoro; (13)..(15) 2′-O-methyl; (16)..(16) 2′-deoxy-2′-fluoro; (17)..(17) 2′ propagyl; (18)..(19) 2′-deoxy-2′-fluoro; (20)..(21) 2′-O-methyl; (20)..(21) phosphorothioate internucleotide linkage; (21)..; (1)..(1) terminal vinyl phosphate; (1)..(1) 2′-methoxyethoxy; (2)..(21) ribonucleotide unmodified or modified as described for this sequence; (2)..(2) 2′-deoxy-2′-fluoro; …)”, the “In vivo mRNA knockdown (%)” value is 25% (Table 6, siRNA-IV 0.5 mg/kg IV, peptide dose 0); 25% (Table 6, siRNA-IV 2 mg/kg IV, peptide dose 0); 35% (Table 6, siRNA-IV 5 mg/kg IV, peptide dose 0). On to “TGN-S-S-SEQ ID NO: 1725 (L) (C(TGN)SSAWWSYWPPVA; reading uncertain; also: Cys disulfide-linked to TGN peptide; listed as Homo sapiens)”, for which the “In vivo mRNA knockdown (%)” value under setting [7] stood at 19%.

With “TGN-S-S-SEQ ID NO: 1727 (D) ([dC](TGN)G[dL][dF][dA][dV][dI][dH][dH][dV][dA][dS][dV][dI]GG[dL]; reading uncertain; also: Cys disulfide-linked to TGN peptide; listed as Homo sapiens)”, the “In vivo mRNA knockdown (%)” value under setting [7] is recorded as 26%. Take “TGN-S-S-SEQ ID NO: 1741(L): TGN-S-S-peptide, peptide GLFGALAEALAEALAEHLAEALAEALEALAAGGSC (GLFGALAEALAEALAEHLAEALAEALEALAAGGSC(TGN); reading uncertain; also: TGN attached via disulfide (S-S); listed as Homo sapiens)”: the “In vivo mRNA knockdown (%)” value under setting [3] is listed as 24%. Take “TGN-S-S-SEQ ID NO: 1730 (D): TGN-S-S-peptide, peptide CGIGAVLHVLTTGLPALISWIKRKRQQ”: under setting [7], the “In vivo mRNA knockdown (%)” value is 43%.
